Assay [1] is described as follows: CAMP (Childhood Asthma Management Program): clinical trial of inhaled budesonide vs. nedocromil vs. placebo, change in FEV1. Format: in vivo, human. The text has this:
The Childhood Asthma Management Program (CAMP) was a randomized, double-masked, long term clinical trial testing the safety and efficacy of inhaled budesonide vs. nedocromil vs. placebo (27). The mean duration of follow-up was 4 years (28). 311 children (males and females for a variety of race and age groups) were randomized to the steroid group, with a mean improvement of 6.8% in their FEV1 at one year. Of these, 65% were Caucasian. These formed the basis for our replication sample.
CAMP is a multicenter, randomized, double-blinded clinical trial testing the safety and efficacy of inhaled budesonide vs. nedocromil vs. placebo over a mean of 4.3 years. Trial design and methodology have been published (27, 28). The replication sample subjects were the Caucasian CAMP children randomized to the steroid group, evaluated at their 2 month follow-up visit.
(§1) The primary outcome measure of the association analyses was percent change in FEV1 over time in response to inhaled steroids, defined as the FEV1 difference from baseline to eight weeks for the Adult Study and CAMP, and to six weeks in ACRN, divided by the baseline value.

The nature of assay [2]: Adult Study (Forest study): 8-week clinical trial of inhaled flunisolide vs. standard inhaled corticosteroid therapy, change in FEV1. Format: in vivo, human. Conditions: on inhaled corticosteroids, evaluated at 8 weeks; mean ± standard deviation; N 470.
From the text: The Forest study (also known as the Adult Study) was an 8 week clinical trial used to compare the effect of once daily high dose inhaled flunisolide vs. “standard inhaled corticosteroid therapy” (performed by Forest Pharmaceuticals). […] Of these participants, 7% were African American, 3% were Hispanic and 2% were other. As 88% of these participants were Caucasian, analyses focus on this group. Additionally, females accounted for 58.5% of the participants.
The Adult Study was a multicenter 8-week randomized clinical trial comparing the effect of once-daily high-dose inhaled flunisolide vs. standard inhaled corticosteroid therapy. Inclusion criteria were a history of asthma, >12% improvement in FEV1 with albuterol and using inhaled steroids at randomization. Exclusion criteria were non-asthma pulmonary disease, smoking (≧10 pack-years) and recent asthma exacerbations requiring systemic steroids. Subjects were phoned weekly and had spirometry at 4 and 8 weeks.
Assay [3] can be described thus: ACRN (SOCS/SLIC) 6-week run-in period on inhaled triamcinolone, change in FEV1. Format: in vivo, human. The settings on record: on inhaled corticosteroids, evaluated at 6 weeks; mean ± standard deviation; N 336.
From the text: Two completed trials conducted by the ACRN (Asthma Clinical Research Network), the salmeterol or corticosteroids (SOCS) (54) and salmeterol±inhaled corticosteroids (SLIC)
Details regarding the entry criteria, run-in period and randomization have been published with the primary trial results (54, 55). Of the 339 subjects eligible for randomization, 336 had DNA available; 66.7% of these were Caucasian, forming the basis of the second replication sample.
as §1

Assay [4] has as its system β2-adrenergic receptor gene. Conditions: cited from earlier work.

`CCCC1O[C@@H]2C[C@H]3[C@@H]4CCC5=CC(=O)C=C[C@]5(C)[C@H]4[C@@H](O)C[C@]3(C)[C@]2(C(=O)CO)O1` (stereo partly drawn) [Budesonide]: the “mean improvement in FEV1” value in assay [1] (at one year, 311 children randomized to the steroid group) is 6.8%. In addition, in assay [1] (on inhaled corticosteroids, evaluated at 8 weeks, mean ± standard deviation, N 311), the “Mean Change in FEV1” value is given as 8.3 ± 14.1%.

As for `CC1(C)O[C@@H]2C[C@H]3[C@@H]4C[C@H](F)C5=CC(=O)C=C[C@]5(C)[C@H]4[C@@H](O)C[C@]3(C)[C@]2(C(=O)CO)O1` [Flunisolide], in assay [2], the “Mean Change in FEV1” value stood at 7.0 ± 19.3%. In the case of `C[C@]12C=CC(=O)C=C1CC[C@H]1[C@@H]3C[C@@H](O)[C@](O)(C(=O)CO)[C@@]3(C)C[C@H](O)[C@@]12F` [Triamcinolone], the “Mean Change in FEV1” value in assay [3] is listed as 6.7 ± 19.7%. With `CC(C)(C)NCC(O)c1ccc(O)c(CO)c1` (stereo not drawn) [albuterol], the acute bronchodilator response entry in assay [4] (Arg/Arg children than Gly/Gly children) is given as “more likely”. Moreover, in assay [4] (regular utilization, Arg/Arg at position 16, compared to Arg/Arg receiving prn and Gly/Gly), the “peak expiratory flow rates” value is reported as “significantly decrease”.
